Experimental data taken from patent publication US20250360235A1, “RADI[…] AND METHOD FOR RADIOLABELLING” (Telix Innovations SA, priority 2024, published 2025).

What was measured:
Type in all cases: physicochemical
[1] = Visual inspection of [68Ga]PSMA-11 solution (acceptance: colourless to slightly yellow solution, free from visible particles); design: key: C = Conforms to specifications
Experimental: (§1) Table 1 to Table 5 show the results of various radiolabelling experiments on radiochemical purity and the chelation yield. The radiolabelling experiments in the tables are carried out as described in: • Example 1 for when the gallium-68 source is GE Liquid target generator and EZAG GalliaPharm generator; • Example 2 for when the gallium-68 source is IRE Galli Eo generator; • Example 3 for when the gallium-68 source is GE solid target generator;
(§2) However, the experiments were carried out with the amount of ascorbic acid as indicated in the Tables 1 to 5, and the activity as indicated in the Tables 1 to 5. Radiochemical purities were measured at various times (T0, T1, T4, T6) after the radiolabelled experiments have been conducted.
(§3) The kits of Example 1, Example 2 or Example 3, with amounts of ascorbic acid as set out in Table 7 were used in the experiments for the ascorbic acid bracketing matrix. Three strengths of [^68Ga]Ga-PSMA-11 will be tested, i.e. 50 mCi/ml, 7 mCi/ml and 1 mCi/ml. Radiochemical purity was determined at different time points (TO, T1, T4 or T6), as set out in Table 7.

[2] = Drug product stability against radiolysis with ascorbic acid
Experimental: as §1, §2, §3

[3] = Visual inspection of [68Ga]PSMA-11 solution (acceptance: colourless to slightly yellow solution, free from visible particles); design: key: C = conforms to specifications
Experimental: as §1, §2, §3

[4] = as above; design: key: C = all results conform to specifications
Experimental: as §1, §2, §3

Compound: O=C([O-])CN(CCN(CC(=O)[O-])Cc1cc(CCC(=O)NCCCCCC(=O)NCCCC[C@H](NC(=O)N[C@@H](CCC(=O)O)C(=O)O)C(=O)O)ccc1[O-])Cc1cc(CCC(=O)O)ccc1[O-].[68Ga+3].[OH3+] [[^68Ga]PSMA-11, gallium-68 radiolabelled Glu-urea-Lys-HBED-CC (gozetotide or PSMA-11)]
- Visual Inspection ([1]; bracketing ~1 mCi/mL, 18.75 mg ascorbic acid, 8.9-11.5 mCi, 0.85-1.09 mCi/mL, IRE Galli Eo, n=2, T0): C
- Visual Inspection ([1]; bracketing ~1 mCi/mL, 18.75 mg ascorbic acid, 8.9-11.5 mCi, 0.85-1.09 mCi/mL, IRE Galli Eo, n=2, T1 (1 h)): C
- Visual Inspection ([1]; bracketing ~1 mCi/mL, 25 mg ascorbic acid, 8.8-12.7 mCi, 0.84-1.21 mCi/mL, 2 × IRE Galli Eo, n=2, T0): C
- Visual Inspection ([1]; bracketing ~1 mCi/mL, 25 mg ascorbic acid, 8.8-12.7 mCi, 0.84-1.21 mCi/mL, 2 × IRE Galli Eo, n=2, T1 (1 h)): C
- Visual Inspection ([1]; bracketing ~1 mCi/mL, 31.25 mg ascorbic acid, 15.2-26.9 mCi, 1.44-2.54 mCi/mL, EZAG GalliaPharm, n=2, T0): C
- Visual Inspection ([1]; bracketing ~1 mCi/mL, 31.25 mg ascorbic acid, 15.2-26.9 mCi, 1.44-2.54 mCi/mL, EZAG GalliaPharm, n=2, T1 (1 h)): C
- Visual Inspection ([1]; bracketing ~7 mCi/mL, 18.75 mg ascorbic acid, 51.0-58.0 mCi, 5.55-6.5 mCi/mL, IRE Galli Eo, n=2, T0): C
- Visual Inspection ([1]; bracketing ~7 mCi/mL, 18.75 mg ascorbic acid, 51.0-58.0 mCi, 5.55-6.5 mCi/mL, IRE Galli Eo, n=2, T4 (4 h)): C
- Visual Inspection ([1]; bracketing ~7 mCi/mL, 25 mg ascorbic acid, 51.6-74.4 mCi, 4.56-6.92 mCi/mL, 3 × GE Liquid Target, 3 × IRE Galli Eo, 3 × EZAG GalliaPharm, n=9, T0): C
- Visual Inspection ([1]; bracketing ~7 mCi/mL, 25 mg ascorbic acid, 51.6-74.4 mCi, 4.56-6.92 mCi/mL, 3 × GE Liquid Target, 3 × IRE Galli Eo, 3 × EZAG GalliaPharm, n=9, T4 (4 h)): C
- Visual Inspection ([1]; bracketing ~7 mCi/mL, 31.25 mg ascorbic acid, 61.5-62.0 mCi, 5.85-5.88 mCi/mL, EZAG GalliaPharm, n=2, T0): C
- Visual Inspection ([1]; bracketing ~7 mCi/mL, 31.25 mg ascorbic acid, 61.5-62.0 mCi, 5.85-5.88 mCi/mL, EZAG GalliaPharm, n=2, T4 (4 h)): C
- Visual Inspection ([1]; bracketing ~50 mCi/mL, 20 mg ascorbic acid, 514-544 mCi, 48.3-51.9 mCi/mL, GE Solid Target, n=2, T0): C
- Visual Inspection ([1]; bracketing ~50 mCi/mL, 20 mg ascorbic acid, 514-544 mCi, 48.3-51.9 mCi/mL, GE Solid Target, n=2, T6 (6 h)): C
- Visual Inspection ([1]; bracketing ~50 mCi/mL, 25 mg ascorbic acid, 537-551 mCi, 50.2-51.6 mCi/mL, GE Solid Target, n=3, T0): C
- Visual Inspection ([1]; bracketing ~50 mCi/mL, 25 mg ascorbic acid, 537-551 mCi, 50.2-51.6 mCi/mL, GE Solid Target, n=3, T6 (6 h)): C
- Visual Inspection ([1]; bracketing ~50 mCi/mL, 31.25 mg ascorbic acid, 500-544 mCi, 48.1-51.7 mCi/mL, GE Solid Target, n=2, T0): C
- Visual Inspection ([1]; bracketing ~50 mCi/mL, 31.25 mg ascorbic acid, 500-544 mCi, 48.1-51.7 mCi/mL, GE Solid Target, n=2, T6 (6 h)): C
- time for which stability is maintained ([2]; 20 mg ascorbic acid, highest strength 48.3-51.9 mCi/mL (worst case), Table 8): up to 6 hours
- time for which the formulation is stabilized ([2]; 25 mg ascorbic acid, Table 3): up to 4 hours
- time for which ascorbic acid is an effective radio-stabilizer / stability maintained ([2]; 10-50 mg ascorbic acid, 458-560 mCi starting activity, 48.3-71.1 mCi/mL, Table 2): up to 6 hours
- stability ([2]; 18.75-31.25 mg ascorbic acid, 5.1-5.88 mCi/mL and 0.84-2.54 mCi/mL, Tables 9 and 10): stability of the [^68Ga]PSMA-11 is maintained
- Visual Inspection ([3]; 1 mg ascorbic acid, 58.7-71.1 mCi, 7.47-8.99 mCi/mL, GE Liquid target, n=3, T0): C
- Visual Inspection ([3]; 1 mg ascorbic acid, 58.7-71.1 mCi, 7.47-8.99 mCi/mL, GE Liquid target, n=3, T4 (4 h)): C
- Visual Inspection ([3]; 2.5 mg ascorbic acid, 49.9-76.9 mCi, 6.31-9.72 mCi/mL, GE Liquid target, n=3, T0): C
- Visual Inspection ([3]; 2.5 mg ascorbic acid, 49.9-76.9 mCi, 6.31-9.72 mCi/mL, GE Liquid target, n=3, T4 (4 h)): C
- Visual Inspection ([3]; 5 mg ascorbic acid, 60-69.9 mCi, 7.61-8.81 mCi/mL, 3 × GE Liquid Target, 3 × EZAG GalliaPharm, n=6, T0): C
- Visual Inspection ([3]; 5 mg ascorbic acid, 60-69.9 mCi, 7.61-8.81 mCi/mL, 3 × GE Liquid Target, 3 × EZAG GalliaPharm, n=6, T4 (4 h)): C
- Visual Inspection ([3]; 10 mg ascorbic acid, 458-500 mCi, 43.4-47.3 mCi/mL, GE Solid Target, n=3, T0): C
- Visual Inspection ([3]; 10 mg ascorbic acid, 458-500 mCi, 43.4-47.3 mCi/mL, GE Solid Target, n=3, T4 (4 h)): C
- Visual Inspection ([3]; 10 mg ascorbic acid, 514-520 mCi, 49.0-66.1 mCi/mL, GE Solid Target, n=3, T0): C
- Visual Inspection ([3]; 10 mg ascorbic acid, 514-520 mCi, 49.0-66.1 mCi/mL, GE Solid Target, n=3, T6 (6 h)): C
- Visual Inspection ([3]; 15 mg ascorbic acid, 10.0-18.4 mCi, 0.95-1.77 mCi/mL, 1 × EZAG GalliaPharm, 2 × IRE Galli Eo, n=3, T0): C
- Visual Inspection ([3]; 15 mg ascorbic acid, 10.0-18.4 mCi, 0.95-1.77 mCi/mL, 1 × EZAG GalliaPharm, 2 × IRE Galli Eo, n=3, T1 (1 h)): C
- Visual Inspection ([3]; 15 mg ascorbic acid, 23.7-47.6 mCi, 2.26-4.53 mCi/mL, 1 × EZAG GalliaPharm, 2 × IRE Galli Eo, n=3, T0): C
- Visual Inspection ([3]; 15 mg ascorbic acid, 23.7-47.6 mCi, 2.26-4.53 mCi/mL, 1 × EZAG GalliaPharm, 2 × IRE Galli Eo, n=3, T4 (4 h)): C
- Visual Inspection ([3]; 20 mg ascorbic acid, 514-544 mCi, 48.3-51.9 mCi/mL, GE Solid Target, n=2, T0): C
- Visual Inspection ([3]; 20 mg ascorbic acid, 514-544 mCi, 48.3-51.9 mCi/mL, GE Solid Target, n=2, T6 (6 h)): C
- Visual Inspection ([3]; 50 mg ascorbic acid, 560 mCi, 71.1 mCi/mL, GE Solid Target, n=1, T0): C
- Visual Inspection ([3]; 50 mg ascorbic acid, 560 mCi, 71.1 mCi/mL, GE Solid Target, n=1, T6 (6 h)): C
- Visual Inspection ([4]; 25 mg ascorbic acid, 10.2 mCi, 0.97 mCi/mL, IRE Galli Eo, n=1, T0): C
- Visual Inspection ([4]; 25 mg ascorbic acid, 10.2 mCi, 0.97 mCi/mL, IRE Galli Eo, n=1, T1 (1 h)): C
- Visual Inspection ([4]; 25 mg ascorbic acid, 19.5-20.0 mCi, 1.85-1.90 mCi/mL, EZAG GalliaPharm, n=2, T0): C
- Visual Inspection ([4]; 25 mg ascorbic acid, 19.5-20.0 mCi, 1.85-1.90 mCi/mL, EZAG GalliaPharm, n=2, T1 (1 h)): C
- Visual Inspection ([4]; 25 mg ascorbic acid, 23.3-24 mCi, 2.22-2.28 mCi/mL, IRE Galli Eo, n=2, T0): C
- Visual Inspection ([4]; 25 mg ascorbic acid, 23.3-24 mCi, 2.22-2.28 mCi/mL, IRE Galli Eo, n=2, T4 (4 h)): C
- Visual Inspection ([4]; 25 mg ascorbic acid, 46.0-46.1 mCi, 4.38-4.39 mCi/mL, EZAG GalliaPharm, n=2, T0): C
- Visual Inspection ([4]; 25 mg ascorbic acid, 46.0-46.1 mCi, 4.38-4.39 mCi/mL, EZAG GalliaPharm, n=2, T4 (4 h)): C
- Visual Inspection ([4]; control, 0 mg ascorbic acid, 70 mCi, GE Solid Target, n=1, T0): C
- Visual Inspection ([4]; control, 0 mg ascorbic acid, 70 mCi, GE Solid Target, n=1, T4 (4 h)): C
- Visual Inspection ([4]; validation batches, 25 mg ascorbic acid, 51.6-62.7 mCi, 4.56-5.88 mCi/mL, IRE Galli Eo, n=3, T0): C
- Visual Inspection ([4]; validation batches, 25 mg ascorbic acid, 51.6-62.7 mCi, 4.56-5.88 mCi/mL, IRE Galli Eo, n=3, T4 (4 h)): C
- Visual Inspection ([4]; validation batches, 25 mg ascorbic acid, 53.3-74.4 mCi, 5.03-6.92 mCi/mL, GE Liquid target, n=3, T0): C
- Visual Inspection ([4]; validation batches, 25 mg ascorbic acid, 53.3-74.4 mCi, 5.03-6.92 mCi/mL, GE Liquid target, n=3, T4 (4 h)): C
- Visual Inspection ([4]; validation batches, 25 mg ascorbic acid, 65.0-66.4 mCi, 5.74-6.15 mCi/mL, EZAG GalliaPharm, n=3, T0): C
- Visual Inspection ([4]; validation batches, 25 mg ascorbic acid, 65.0-66.4 mCi, 5.74-6.15 mCi/mL, EZAG GalliaPharm, n=3, T4 (4 h)): C
- Visual Inspection ([4]; validation batches, 25 mg ascorbic acid, 537-551 mCi, 50.2-51.6 mCi/mL, GE Solid Target, n=3, T0): C
- Visual Inspection ([4]; validation batches, 25 mg ascorbic acid, 537-551 mCi, 50.2-51.6 mCi/mL, GE Solid Target, n=3, T6 (6 h)): C
- Visual Inspection ([4]; validation batches, 25 mg ascorbic acid, 555-564 mCi, 51.1-52.7 mCi/mL, ARTMS Solid Target, n=3, T0): C
- Visual Inspection ([4]; validation batches, 25 mg ascorbic acid, 555-564 mCi, 51.1-52.7 mCi/mL, ARTMS Solid Target, n=3, T6 (6 h)): C
